Data reported in ChEMBL document CHEMBL5465560, “Selectivity Literature for EUbOPEN Chemogenomic Library” (2024).
Each block holds one molecule with its values, some of them ahead of it.

Legend:
[1] = molecular target: Serine/threonine-protein kinase PLK1 (Homo sapiens, UniProt P53350); assay: Selectivity interaction (Kinase panel (literature)) EUB0001199aCl PLK1; conditions: at 1 µM
[2] = system: Tyrosine-protein kinase ABL1 (Homo sapiens), P00519 [Y253F]; assay: (§1) Selectivity interaction (KinomeScan (DiscoverX)) EUB0001079a ABL1; conditions: at 1 µM
[3] = system: Tyrosine-protein kinase ABL1 (Homo sapiens), P00519 [E255K]; assay: as §1; conditions: at 1 µM
[4] = molecular target: Fibroblast growth factor receptor 3 (Homo sapiens, UniProt P22607); assay: Selectivity interaction (Millipore kinase profiler) EUB0000124b FGFR3; conditions: at 10 µM
Fibroblast growth factor receptor 3, sequence (P22607 23-806 limits assumed): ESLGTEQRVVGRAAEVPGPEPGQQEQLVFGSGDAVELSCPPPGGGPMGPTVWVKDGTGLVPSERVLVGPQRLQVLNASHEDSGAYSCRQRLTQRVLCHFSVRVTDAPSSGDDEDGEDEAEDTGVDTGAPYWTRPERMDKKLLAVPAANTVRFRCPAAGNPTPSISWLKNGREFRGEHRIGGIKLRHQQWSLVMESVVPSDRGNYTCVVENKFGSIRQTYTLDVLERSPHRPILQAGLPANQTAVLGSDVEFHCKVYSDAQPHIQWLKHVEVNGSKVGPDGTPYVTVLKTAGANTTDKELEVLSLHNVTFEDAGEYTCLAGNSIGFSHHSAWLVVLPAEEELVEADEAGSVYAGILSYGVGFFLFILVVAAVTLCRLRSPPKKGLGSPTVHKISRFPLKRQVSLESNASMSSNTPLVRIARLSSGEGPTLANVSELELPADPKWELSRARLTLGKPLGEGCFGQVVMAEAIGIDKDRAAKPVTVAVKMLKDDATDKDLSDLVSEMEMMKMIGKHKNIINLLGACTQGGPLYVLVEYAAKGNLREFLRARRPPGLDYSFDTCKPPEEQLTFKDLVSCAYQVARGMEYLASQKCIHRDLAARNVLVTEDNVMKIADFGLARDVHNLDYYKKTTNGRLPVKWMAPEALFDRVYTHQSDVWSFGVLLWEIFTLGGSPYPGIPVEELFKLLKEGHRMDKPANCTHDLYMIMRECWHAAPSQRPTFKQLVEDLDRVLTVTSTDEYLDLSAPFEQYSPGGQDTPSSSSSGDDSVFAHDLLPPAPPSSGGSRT

[5] = molecular target: Glycogen synthase kinase-3 beta (Homo sapiens, UniProt P49841); assay: Selectivity interaction (KinomeScan (DiscoverX)) EUB0001619a GSK3B; conditions: at 1 µM
Glycogen synthase kinase-3 beta, sequence (P49841 whole entry, looked up): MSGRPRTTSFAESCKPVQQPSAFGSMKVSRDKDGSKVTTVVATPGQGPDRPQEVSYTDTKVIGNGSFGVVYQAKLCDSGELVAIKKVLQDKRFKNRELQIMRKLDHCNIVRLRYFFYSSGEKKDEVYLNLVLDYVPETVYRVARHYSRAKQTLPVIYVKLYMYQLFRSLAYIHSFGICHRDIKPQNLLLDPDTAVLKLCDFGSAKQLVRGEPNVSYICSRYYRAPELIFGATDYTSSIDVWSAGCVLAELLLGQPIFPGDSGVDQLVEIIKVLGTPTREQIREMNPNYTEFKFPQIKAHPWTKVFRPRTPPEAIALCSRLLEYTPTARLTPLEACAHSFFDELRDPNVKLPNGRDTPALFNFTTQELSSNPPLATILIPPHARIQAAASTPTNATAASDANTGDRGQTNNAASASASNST

[6] = molecular target: T1, TGF-beta receptor type-1 (Homo sapiens) (UniProt P36897); assay: Selectivity interaction (KinomeScan (DiscoverX)) EUB0000595a TGFBR1; conditions: at 10 µM
T1 sequence (whole entry): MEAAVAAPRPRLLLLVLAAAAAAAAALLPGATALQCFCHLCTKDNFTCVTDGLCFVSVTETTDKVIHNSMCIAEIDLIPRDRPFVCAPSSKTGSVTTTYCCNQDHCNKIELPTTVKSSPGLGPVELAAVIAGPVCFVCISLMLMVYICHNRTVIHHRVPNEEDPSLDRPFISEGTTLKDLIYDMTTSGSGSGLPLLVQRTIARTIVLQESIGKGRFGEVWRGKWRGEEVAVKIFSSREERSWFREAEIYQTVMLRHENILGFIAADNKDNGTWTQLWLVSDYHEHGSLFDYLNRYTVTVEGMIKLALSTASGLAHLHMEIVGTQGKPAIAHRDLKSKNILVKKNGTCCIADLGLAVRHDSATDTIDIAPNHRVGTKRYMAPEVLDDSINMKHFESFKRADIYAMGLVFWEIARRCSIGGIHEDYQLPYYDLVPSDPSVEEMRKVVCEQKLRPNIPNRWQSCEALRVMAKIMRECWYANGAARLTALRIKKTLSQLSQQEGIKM

[7] = molecular target: Wee1-like protein kinase (Homo sapiens) (UniProt P30291); assay: Selectivity interaction (KinomeScan (DiscoverX)) EUB0000595a WEE1; conditions: at 10 µM
[8] = molecular target: G protein-coupled receptor kinase 4 (Homo sapiens) (UniProt P32298); assay: Selectivity interaction (KinomeScan (DiscoverX)) EUB0000229b GRK4; conditions: at 10 µM
G protein-coupled receptor kinase 4 (Homo sapiens), sequence (P32298 whole entry, looked up): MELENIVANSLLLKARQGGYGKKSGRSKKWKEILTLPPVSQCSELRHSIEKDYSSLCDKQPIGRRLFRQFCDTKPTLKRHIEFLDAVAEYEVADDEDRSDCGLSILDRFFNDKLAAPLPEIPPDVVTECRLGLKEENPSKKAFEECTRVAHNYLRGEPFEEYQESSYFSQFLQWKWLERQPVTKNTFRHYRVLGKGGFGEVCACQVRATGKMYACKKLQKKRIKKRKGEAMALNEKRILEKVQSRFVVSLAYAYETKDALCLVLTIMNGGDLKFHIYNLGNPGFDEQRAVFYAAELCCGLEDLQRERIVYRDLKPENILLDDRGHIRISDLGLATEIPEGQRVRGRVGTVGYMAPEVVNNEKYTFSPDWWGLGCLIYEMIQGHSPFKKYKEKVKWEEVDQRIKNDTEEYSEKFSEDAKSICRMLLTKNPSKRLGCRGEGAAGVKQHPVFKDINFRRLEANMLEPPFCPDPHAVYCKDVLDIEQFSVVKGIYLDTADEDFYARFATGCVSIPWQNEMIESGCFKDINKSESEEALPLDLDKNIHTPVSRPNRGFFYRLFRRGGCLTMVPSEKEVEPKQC

[9] = molecular target: 1-phosphatidylinositol 3-phosphate 5-kinase (Homo sapiens) (UniProt Q9Y2I7); assay: Selectivity interaction (KinomeScan (DiscoverX)) EUB0001049a PIKFYVE; conditions: at 1 µM
1-phosphatidylinositol 3-phosphate 5-kinase (Homo sapiens), sequence (Q9Y2I7 whole entry): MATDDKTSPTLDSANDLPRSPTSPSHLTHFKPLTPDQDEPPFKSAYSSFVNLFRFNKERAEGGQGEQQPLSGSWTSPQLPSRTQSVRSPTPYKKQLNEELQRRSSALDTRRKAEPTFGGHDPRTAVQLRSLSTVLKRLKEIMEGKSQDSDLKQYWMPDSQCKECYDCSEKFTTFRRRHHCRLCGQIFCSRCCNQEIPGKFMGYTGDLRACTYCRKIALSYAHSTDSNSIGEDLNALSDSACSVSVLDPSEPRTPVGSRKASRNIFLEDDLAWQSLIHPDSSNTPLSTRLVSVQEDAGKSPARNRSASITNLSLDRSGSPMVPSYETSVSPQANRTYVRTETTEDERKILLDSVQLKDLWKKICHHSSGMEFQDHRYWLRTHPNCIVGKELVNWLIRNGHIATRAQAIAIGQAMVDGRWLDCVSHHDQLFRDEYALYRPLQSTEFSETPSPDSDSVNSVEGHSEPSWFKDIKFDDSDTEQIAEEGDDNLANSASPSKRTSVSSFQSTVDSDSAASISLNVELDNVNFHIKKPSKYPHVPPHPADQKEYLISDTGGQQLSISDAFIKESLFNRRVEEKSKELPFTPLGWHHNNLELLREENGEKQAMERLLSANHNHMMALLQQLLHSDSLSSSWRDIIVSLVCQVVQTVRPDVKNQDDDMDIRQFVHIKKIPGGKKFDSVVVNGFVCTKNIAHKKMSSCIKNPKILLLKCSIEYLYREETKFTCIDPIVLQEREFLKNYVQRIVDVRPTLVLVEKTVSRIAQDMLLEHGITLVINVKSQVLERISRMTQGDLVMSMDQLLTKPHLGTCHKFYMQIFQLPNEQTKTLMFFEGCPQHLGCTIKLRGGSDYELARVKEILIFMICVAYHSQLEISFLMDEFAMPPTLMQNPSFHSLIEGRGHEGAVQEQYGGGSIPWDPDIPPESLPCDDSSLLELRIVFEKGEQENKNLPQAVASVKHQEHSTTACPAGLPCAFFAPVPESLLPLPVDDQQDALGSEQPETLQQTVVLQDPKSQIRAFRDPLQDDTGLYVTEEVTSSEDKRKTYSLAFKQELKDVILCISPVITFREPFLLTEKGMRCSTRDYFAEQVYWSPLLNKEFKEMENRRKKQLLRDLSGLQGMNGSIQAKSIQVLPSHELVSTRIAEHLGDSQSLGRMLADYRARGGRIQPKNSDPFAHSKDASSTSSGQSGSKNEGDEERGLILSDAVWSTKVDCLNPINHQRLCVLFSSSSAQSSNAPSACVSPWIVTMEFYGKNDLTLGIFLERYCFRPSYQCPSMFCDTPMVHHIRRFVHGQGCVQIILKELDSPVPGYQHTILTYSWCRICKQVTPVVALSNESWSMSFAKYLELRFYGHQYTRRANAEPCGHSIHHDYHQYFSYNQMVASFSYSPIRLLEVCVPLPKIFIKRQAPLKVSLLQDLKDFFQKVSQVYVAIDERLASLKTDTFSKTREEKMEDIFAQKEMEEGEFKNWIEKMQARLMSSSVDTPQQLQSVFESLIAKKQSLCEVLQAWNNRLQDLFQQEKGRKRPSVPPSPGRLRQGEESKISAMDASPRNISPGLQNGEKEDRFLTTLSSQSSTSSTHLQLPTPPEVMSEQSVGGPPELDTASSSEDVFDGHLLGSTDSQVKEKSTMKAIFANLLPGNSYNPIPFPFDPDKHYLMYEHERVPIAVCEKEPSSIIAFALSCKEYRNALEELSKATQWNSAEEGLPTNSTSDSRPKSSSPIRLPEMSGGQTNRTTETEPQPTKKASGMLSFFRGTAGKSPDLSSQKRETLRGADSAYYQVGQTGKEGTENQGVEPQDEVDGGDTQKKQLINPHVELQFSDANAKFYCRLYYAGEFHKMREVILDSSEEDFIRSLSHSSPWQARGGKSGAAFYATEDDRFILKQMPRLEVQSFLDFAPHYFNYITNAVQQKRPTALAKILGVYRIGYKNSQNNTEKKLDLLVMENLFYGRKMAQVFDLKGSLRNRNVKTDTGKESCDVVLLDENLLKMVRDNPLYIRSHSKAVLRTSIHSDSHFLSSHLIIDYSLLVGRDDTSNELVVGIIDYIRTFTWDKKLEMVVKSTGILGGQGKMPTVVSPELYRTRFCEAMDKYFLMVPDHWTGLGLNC

[10] = molecular target: MAP kinase-interacting serine/threonine-protein kinase 2 (Homo sapiens, UniProt Q9HBH9); assay: Selectivity interaction (KinomeScan (DiscoverX)) EUB0000092b MKNK2; conditions: at 10 µM
MAP kinase-interacting serine/threonine-protein kinase 2, sequence (Q9HBH9 whole entry, looked up): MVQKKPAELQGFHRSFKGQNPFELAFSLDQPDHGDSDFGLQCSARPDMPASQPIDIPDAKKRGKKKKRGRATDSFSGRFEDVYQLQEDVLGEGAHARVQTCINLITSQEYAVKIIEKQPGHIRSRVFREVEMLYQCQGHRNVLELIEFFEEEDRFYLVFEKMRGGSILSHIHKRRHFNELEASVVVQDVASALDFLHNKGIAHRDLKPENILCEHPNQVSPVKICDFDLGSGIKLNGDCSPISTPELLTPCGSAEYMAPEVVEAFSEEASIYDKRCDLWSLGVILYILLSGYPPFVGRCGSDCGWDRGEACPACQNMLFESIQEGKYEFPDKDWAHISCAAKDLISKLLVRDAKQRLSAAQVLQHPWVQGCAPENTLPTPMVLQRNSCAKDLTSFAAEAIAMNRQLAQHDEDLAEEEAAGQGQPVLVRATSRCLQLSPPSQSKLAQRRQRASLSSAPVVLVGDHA

[11] = molecular target: T2, NUAK family SNF1-like kinase 1 (Homo sapiens) (UniProt O60285); assay: Selectivity interaction (Kinase panel (Carna Biosciences)) EUB0001542aTs NUAK1; conditions: at 1 µM
T2 sequence (whole entry): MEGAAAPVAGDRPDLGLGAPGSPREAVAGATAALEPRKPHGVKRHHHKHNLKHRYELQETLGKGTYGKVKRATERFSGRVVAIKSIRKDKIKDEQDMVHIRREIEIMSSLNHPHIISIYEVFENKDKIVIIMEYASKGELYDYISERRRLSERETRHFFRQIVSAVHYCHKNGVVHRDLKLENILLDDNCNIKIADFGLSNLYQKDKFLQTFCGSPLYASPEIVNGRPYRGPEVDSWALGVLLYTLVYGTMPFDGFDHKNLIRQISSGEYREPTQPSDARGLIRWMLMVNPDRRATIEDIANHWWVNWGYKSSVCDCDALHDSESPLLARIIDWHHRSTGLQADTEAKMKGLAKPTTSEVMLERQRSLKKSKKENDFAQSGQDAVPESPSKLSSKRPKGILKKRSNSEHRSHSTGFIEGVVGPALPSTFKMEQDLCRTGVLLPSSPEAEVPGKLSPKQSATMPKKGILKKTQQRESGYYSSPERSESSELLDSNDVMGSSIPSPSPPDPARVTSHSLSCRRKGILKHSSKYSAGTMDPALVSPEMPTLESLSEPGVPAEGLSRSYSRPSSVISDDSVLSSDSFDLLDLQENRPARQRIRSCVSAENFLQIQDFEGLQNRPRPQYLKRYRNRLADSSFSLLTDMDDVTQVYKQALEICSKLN

[12] = molecular target: Myosin light chain kinase, smooth muscle (Homo sapiens, UniProt Q15746); assay: Selectivity interaction (LanthaScreen Eu Kinase Binding Assay) EUB0001632a MYLK; conditions: at 10 µM
[13] = molecular target: T3, Mitogen-activated protein kinase kinase kinase kinase 3 (Homo sapiens) (UniProt Q8IVH8); assay: Selectivity interaction (LanthaScreen Eu Kinase Binding Assay) EUB0001632a MAP4K3; conditions: at 10 µM
T3 sequence (whole entry): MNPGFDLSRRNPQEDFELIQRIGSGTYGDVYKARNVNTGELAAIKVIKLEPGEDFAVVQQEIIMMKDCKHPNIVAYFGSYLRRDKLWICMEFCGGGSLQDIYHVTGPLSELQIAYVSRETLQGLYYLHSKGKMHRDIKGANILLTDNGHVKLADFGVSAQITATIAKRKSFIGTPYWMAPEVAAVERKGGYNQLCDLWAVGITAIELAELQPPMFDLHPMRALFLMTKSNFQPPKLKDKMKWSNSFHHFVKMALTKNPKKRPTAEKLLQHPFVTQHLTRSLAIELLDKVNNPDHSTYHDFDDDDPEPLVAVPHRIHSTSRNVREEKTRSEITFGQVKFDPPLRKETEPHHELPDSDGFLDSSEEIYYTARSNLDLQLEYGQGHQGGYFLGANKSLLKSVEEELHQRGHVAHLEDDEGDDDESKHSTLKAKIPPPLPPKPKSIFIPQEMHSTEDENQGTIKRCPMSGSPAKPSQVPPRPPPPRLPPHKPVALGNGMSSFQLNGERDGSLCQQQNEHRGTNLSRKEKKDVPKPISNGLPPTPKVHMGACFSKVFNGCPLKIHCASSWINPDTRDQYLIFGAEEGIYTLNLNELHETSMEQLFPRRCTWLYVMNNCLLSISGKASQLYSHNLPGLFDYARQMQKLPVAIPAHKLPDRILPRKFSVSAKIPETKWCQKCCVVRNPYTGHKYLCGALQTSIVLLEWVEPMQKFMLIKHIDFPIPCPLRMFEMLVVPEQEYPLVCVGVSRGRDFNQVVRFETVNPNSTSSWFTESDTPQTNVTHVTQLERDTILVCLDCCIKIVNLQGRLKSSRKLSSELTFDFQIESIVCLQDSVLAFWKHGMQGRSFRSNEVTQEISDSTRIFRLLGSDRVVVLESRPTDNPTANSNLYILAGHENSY

Serine/threonine-protein kinase PLK1, sequence (P53350 whole entry): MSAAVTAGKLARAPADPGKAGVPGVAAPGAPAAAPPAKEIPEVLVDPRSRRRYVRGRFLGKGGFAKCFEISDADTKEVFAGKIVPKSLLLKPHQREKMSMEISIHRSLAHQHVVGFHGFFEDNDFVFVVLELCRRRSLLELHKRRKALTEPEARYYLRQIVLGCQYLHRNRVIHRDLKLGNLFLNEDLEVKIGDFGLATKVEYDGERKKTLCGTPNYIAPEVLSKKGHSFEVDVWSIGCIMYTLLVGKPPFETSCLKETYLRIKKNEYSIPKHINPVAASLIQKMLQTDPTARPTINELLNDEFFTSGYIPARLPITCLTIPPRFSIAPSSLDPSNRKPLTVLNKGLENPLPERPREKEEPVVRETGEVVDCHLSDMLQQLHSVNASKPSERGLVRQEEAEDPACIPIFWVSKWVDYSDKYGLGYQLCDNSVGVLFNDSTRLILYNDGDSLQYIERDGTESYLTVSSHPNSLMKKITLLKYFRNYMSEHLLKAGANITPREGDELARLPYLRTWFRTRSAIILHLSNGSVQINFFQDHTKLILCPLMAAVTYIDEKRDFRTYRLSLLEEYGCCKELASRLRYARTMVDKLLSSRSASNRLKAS

% of inhibition [1]: -3%
SMILES: CN1Cc2nccc(-c3cn(C)nc3-c3ccc(F)cc3)c2C1=O

SMILES: Nc1cnc(N2CCc3cc(S(=O)(=O)Nc4c(F)cc(Cl)cc4F)cc(N4CCCC4=O)c32)nc1 [TP-020n]
% of control [2]: 94%
% of control [3]: 85%

% of control [4]: 98%
SMILES: CC(=O)Nc1cccc(-n2c(=O)n(C3CC3)c(=O)c3c(Nc4ccc(I)cc4F)n(C)c(=O)c(C)c32)c1

SMILES: N#Cc1cccc(-c2c[nH]c3ncnc(N4CCOCC4)c23)c1
% of control [5]: 94%

SMILES: COCC(=O)NC/C=C/c1ccc2ncnc(Nc3ccc(Oc4ccc(C)nc4)c(C)c3)c2c1 [CP-724714]
% of control [6]: 100%
% of control [7]: 100%

SMILES: COc1cc(N(C)c2ccnc3ccc(C(F)(F)F)cc23)cc(OC)c1OC
% binding [8]: 90%

SMILES: COc1cc(Nc2nc(C)cc(-c3cnn4nc(OC)ccc34)n2)cc(C(F)(F)F)c1
% of control [9]: 100%

SMILES: CCC(=O)N1CCN(c2ccc(-n3c(=O)ccc4cnc5ccc(-c6cnc7ccccc7c6)cc5c43)cc2C(F)(F)F)CC1
% of control [10]: 54%

% of inhibition [11]: 60%
SMILES: Cn1cc(Nc2nccc(N3CC4CCC(C3)N4C(=O)[C@@H]3CC3(F)F)n2)cn1

% of inhibition [12]: -1.03%
% of inhibition [13]: -14.8%
SMILES: Cn1cc(-n2cnc3c(NCc4nc5cc(Cl)c(Cl)cc5[nH]4)nc(N4CCOCC4)nc32)cn1
